# US20210308196A1, “COMPOSITIONS AND METHODS TO PROMOTE HOST DEFENSE AND STIMULATE, EXPAND, AND/OR RESET T CELL REPERTOIRES” (EVOLVE BIOSYSTEMS, INC., priority 2018, published 2021)
# What was measured:
# Assay type in all cases: in vivo, human
# infant gut microbiome = experiment: Infant fecal microbiome analysis (16S rDNA sequencing, B. infantis qPCR)
# Method: Infant fecal samples were collected throughout the 60-day trial. Mothers collected their own fecal and breastmilk samples as well as fecal samples from their infants. They filled out weekly, biweekly and monthly health and diet questionnaires, as well as daily logs about their infant feeding and gastrointestinal tolerability (GI). Safety and tolerability were determined from maternal reports of infants' feeding, stooling frequency, and consistency (using a modified Amsterdam infant stool scale—watery, soft, formed, hard; Bekkali et al. 2009), as well as GI symptoms and health outcomes. Individual fecal samples were subjected to full microbiome analysis using Illumina sequencing based on 16S rDNA and qPCR with primers designed specifically for B. longum subsp. infantis strain.
# Evaluation of EVC001 colonization. As previously described in Frese et al. (2017) (mSphere 2(6): e00501-00517) colonization is measured at baseline and post-feeding by quantitative PCR using specific primers for B. infantis. Colonization is considered when B. infantis abundance is greater than 10^5, but more preferably greater than 10^7 or 10^8 CFU/ug DNA. Colonization may also be described as a significant expansion of the total relative contribution of Bifidobacteriaceae to the infant gut microbiome.
# Bacterial DNA Methods. The relative abundance of the stool bacteria at the phylum, class, order, family, and genus level was characterized by performing a sequence analysis of the V4 segment of the 16S rRNA gene using QIIME v1.9.1.
# [1] = system: vaccine specific antibodies; experiment: Vaccine-specific antibodies in infant stool
# Excerpt: Infants from Example 1 received vaccines per the standard schedule. Standard schedule is expected to look like this, as per the CDC (other nations have slightly different schedules; however, the repeated doses over the first year of life is common).
# Stool samples were collected at 10 and 12 months for vaccine quantification to coincide with an appropriate post-vaccine time point, and to allow the expansion of vaccine-specific antibodies concentrations to plateau after primary, secondary or tertiary doses [Wright et al. (2014) Journal of Infectious Diseases:209 pg 1628-1634; Brown et al. (2012) J Immunol Methods: 386(1-2): 117-12].
# Evaluation of stool for antigen specific responses in infants colonized with B. infantis EVC001. Biophysical antibody profiling assays are performed to assess the Fv and Fc characteristics of vaccine-elicited antibodies raised in infants with and without B. infantis colonization. Presence and phenotype of antibodies in test samples are assessed by staining of bead-bound antibodies with PE-conjugated detection reagents (Anti-IgG, Anti-IgA, and potentially Anti-IgE) and detection via flow cytometry. For the assay, 100 μL each of prepared stool samples from 34 subjects (2 timepoints, up to 62 samples total) that received either received EVC001 or are part of the control group.
# zonulin = experiment: Fecal zonulin ELISA; settings: treatment group
# Excerpt: Fecal zonulin concentrations: Zonulin has been described as the main physiological modulator of intercellular tight junction, and increased levels are indicative of increased gut permeability.
# [2] = Safety and tolerability of B. infantis EVC001 supplementation in healthy term nursing infants; settings: healthy term breastfed infants
# Method: This trial was designed to show the effect of probiotic supplementation with Bifidobacterium longum subsp. Infantis (B. infantis EVC001) in healthy, term, nursing infants compared to an unsupplemented group. A dry composition of lactose and activated Bifidobacterium longum subsp. infantis was prepared starting with the cultivation of a purified isolate (Strain EVC001 ATCC Accession No. PTA-125180, Evolve Biosystems Inc., Davis, Calif., isolated from a human infant fecal sample) in the presence of BMO according to International Patent Application No. PCT/US2015/057226. […] This concentrated powder was then diluted by blending with infant formula grade lactose to an activity level of about 30 Billion CFU/g. This composition then was loaded into individual sachets at about 0.625 g/sachet and provided to breast-fed infants starting on or about day 7 of life and then provided on a daily basis for the subsequent 21 days.
# This was a 60-day study starting with infants' date of birth as Day 1. […]
# Infant fecal samples were collected throughout the 60-day trial. […] Safety and tolerability were determined from maternal reports of infants' feeding, stooling frequency, and consistency (using a modified Amsterdam infant stool scale—watery, soft, formed, hard; Bekkali et al. 2009), as well as GI symptoms and health outcomes. […]
# [3] = infant feces, Day 6 (Baseline), before supplementation starts on Day 7
substance,measurement,setting,value
Bifidobacterium longum subsp. infantis EVC001 [B. infantis EVC001],Levels of proteobacteria and enterococci,infant gut microbiome; colonized infants versus unsupplemented,much lower levels
same,B. infantis colonization level of infant gut,infant gut microbiome; continued after supplementation ended (Day 28) while breast milk consumed,higher than 10^10 cfu/g feces
same,Bacteroidaceae % Relative Abundance,infant gut microbiome; [3],0.1040%
same,Bifidobacteriaceae % Relative Abundance,infant gut microbiome; [3],0.1472%
same,Clostridiaceae % Relative Abundance,infant gut microbiome; [3],0.0874%
same,Enterobacteriaceae % Relative Abundance,infant gut microbiome; [3],0.2743%
same,Enterococcaceae % Relative Abundance,infant gut microbiome; [3],0.0539%
same,Lachnospiraceae % Relative Abundance,infant gut microbiome; [3],0.0197%
same,Other families % Relative Abundance,infant gut microbiome; [3],0.1357%
same,Staphylococcaceae % Relative Abundance,infant gut microbiome; [3],0.0543%
same,Streptococcaceae % Relative Abundance,infant gut microbiome; [3],0.1169%
same,Veillonellaceae % Relative Abundance,infant gut microbiome; [3],0.0065%
same,Bifidobacteriaceae % Relative Abundance,"infant gut microbiome; infant feces, Day 40",significantly higher
same,Enterococcaceae % Relative Abundance,"infant gut microbiome; infant feces, Day 40",0.0045%
same,Lachnospiraceae % Relative Abundance,"infant gut microbiome; infant feces, Day 40",0.0072%
same,Other families % Relative Abundance,"infant gut microbiome; infant feces, Day 40",0.0215%
same,Staphylococcaceae % Relative Abundance,"infant gut microbiome; infant feces, Day 40",0.0036%
same,Streptococcaceae % Relative Abundance,"infant gut microbiome; infant feces, Day 40",0.0291%
same,Veillonellaceae % Relative Abundance,"infant gut microbiome; infant feces, Day 40",0.0077%
same,Bifidobacteriaceae % Relative Abundance,"infant gut microbiome; infant feces, Day 40, listed as EVC001",0.8712%
same,Enterobacteriaceae % Relative Abundance,"infant gut microbiome; infant feces, Day 60",0.0427%
same,Enterococcaceae % Relative Abundance,"infant gut microbiome; infant feces, Day 60",0.0082%
same,Lachnospiraceae % Relative Abundance,"infant gut microbiome; infant feces, Day 60",0.0081%
same,Other families % Relative Abundance,"infant gut microbiome; infant feces, Day 60",0.02443%
same,Staphylococcaceae % Relative Abundance,"infant gut microbiome; infant feces, Day 60",0.0039%
same,Streptococcaceae % Relative Abundance,"infant gut microbiome; infant feces, Day 60",0.0277%
same,Veillonellaceae % Relative Abundance,"infant gut microbiome; infant feces, Day 60",0.0076%
same,Gut microbiome share of B. longum subsp. infantis,"infant gut microbiome; supplemented infants, on average, regardless of birthing mode",greater than 70%
same,Vaccine response,[1]; infants persistently colonized for at least the first 100 days of life vs infants without colonization,stronger vaccine response
same,Vaccine specific antibodies in stool,"[1]; stool collected at 10 and 12 months, treatment group",significant elevation
same,Fecal zonulin concentration,zonulin,significantly reduced
same,Adverse events versus unsupplemented group,[2]; 60-day study,not different between groups
same,Tolerability,[2]; at least 1.8×10^10 cfu once daily for 21 days from Day 7,well-tolerated
